Data published in ChEMBL document CHEMBL5042472, “Design, Synthesis, and Biological Evaluation of a Novel Photocaged PI3K Inhibitor toward Precise Cancer Treatment” (J Med Chem, 2021).

Tests used:
BGC-823 = test: Antiproliferative activity against human BGC-823 cells assessed as reduction in cell viability incubated in dark for 96 hrs by MTT assay; format: functional, cell-based; details: BGC-823, 96 h
AGS = test: Antiproliferative activity against human AGS cells assessed as reduction in cell viability incubated in dark for 96 hrs by MTT assay; format: functional, cell-based
MG-63 = test: Antiproliferative activity against human MG-63 cells assessed as reduction in cell viability incubated in dark for 96 hrs by MTT assay; format: functional, cell-based; details: MG-63, 96 h
[1] = Apparent permeability across apical to basolateral side in human Caco-2 cells at 10 uM incubated for 2 hrs by LC-MS/MS analysis; format: ADME, cell-based
[2] = Apparent permeability across basolateral to apical side in human Caco-2 cells at 10 uM incubated for 2 hrs by LC-MS/MS analysis; format: ADME, cell-based
[3] = Stability in dog liver microsomes assessed as half life at 1 uM in presence of NADPH measured upto 120 min by LC-MS/MS analysis; format: ADME, Canis lupus familiaris, Microsome
[4] = Plasma protein binding in dog at 1 uM by LC-MS/MS analysis; format: ADME, cell-free, Canis lupus familiaris; details: read-out: PPB (converted)
HGC-27 = test: Antiproliferative activity against human HGC-27 cells assessed as reduction in cell viability incubated in dark for 96 hrs by MTT assay; format: functional, cell-based; details: HGC-27, 96 h
[5] = Plasma protein binding in rat at 1 uM by LC-MS/MS analysis; format: ADME, cell-free; details: read-out: PPB (converted)
[6] = Stability in rat liver microsomes assessed as half life at 1 uM in presence of NADPH by LC-MS/MS analysis; format: ADME, Microsome
[7] = Stability in rat plasma assessed as half life at 1 uM measured upto 120 min by LC-MS/MS analysis; format: ADME, cell-free
HCT-116 = test: Antiproliferative activity against human HCT-116 cells assessed as reduction in cell viability incubated in dark for 96 hrs by MTT assay; format: functional, cell-based; details: HCT-116, 96 h
[8] = Stability in dog plasma assessed as half life at 1 uM measured upto 120 min by LC-MS/MS analysis; format: ADME, cell-free, Canis lupus familiaris
[9] = Retention time of the compound by HPLC analysis; format: physicochemical
MGC-803 = test: Antiproliferative activity against human MGC-803 cells assessed as reduction in cell viability incubated in dark for 96 hrs by MTT assay; format: functional, cell-based; details: MGC-803, 96 h

IC50 (BGC-823): 0.0186 µM
IC50 (AGS): 0.0063 µM
Papp A→B at 2 h, 10 µM [1]: 21.2 ×10⁻⁶ cm/s
Papp B→A at 2 h, 10 µM [2]: 26.5 ×10⁻⁶ cm/s
half-life at 1 µM [3]: > 2 h
fraction unbound at 1 µM [4]: 0.017
fraction unbound at 1 µM [5]: 0.017
half-life at 1 µM [6]: 1.73 h
half-life at 1 µM [7]: > 2 h
IC50 (HCT-116): 0.0234 µM
half-life at 1 µM [8]: > 2 h
Retention_time [9]: 5.2 min
IC50 (MGC-803): 0.0148 µM
SMILES: COc1ncc(-c2cc(OC3CCOCC3)c3ncnc(C)c3c2)cc1NS(=O)(=O)c1ccc(F)cc1F
IC50 (MG-63): 0.0057 µM
IC50 (HGC-27): 0.00076 µM
